Measurements taken from the NIST ThermoML archive (doi:10.1016/j.jct.2015.05.006).

Tests used:
[1] = relative permittivity at various frequencies (dimensionless); xn = mol fraction of the nth substance listed; details: 96.6 kPa, Liquid, Frequency=1 MHz, Parallel plate capacitor
[2] = xn = mol fraction of the nth substance listed; details: 96.6 kPa, Liquid, Vibrating tube method

COCCOC [1,2-dimethoxyethane] + C1CCCCC1
Details | mass density, [2] [kg/m3] | relative permittivity, [1]
288.15 K, x2 = 0 | 872.06 | 7.41
288.15 K, x2 = 0.0459 | – | 7.02
288.15 K, x2 = 0.0497 | 865.63 | –
288.15 K, x2 = 0.1021 | 859.14 | –
288.15 K, x2 = 0.1034 | – | 6.56
288.15 K, x2 = 0.1974 | 847.96 | –
288.15 K, x2 = 0.2009 | – | 5.84
288.15 K, x2 = 0.3013 | – | 5.17
288.15 K, x2 = 0.3031 | 836.42 | –
288.15 K, x2 = 0.4026 | 826.35 | –
288.15 K, x2 = 0.4027 | – | 4.55
288.15 K, x2 = 0.4967 | 817.52 | –
288.15 K, x2 = 0.5031 | – | 3.99
288.15 K, x2 = 0.5998 | 808.62 | 3.51
288.15 K, x2 = 0.6961 | 801.06 | –
288.15 K, x2 = 0.7015 | – | 3.06
288.15 K, x2 = 0.7953 | – | 2.69
288.15 K, x2 = 0.8006 | 793.78 | –
288.15 K, x2 = 0.9017 | – | 2.33
288.15 K, x2 = 0.9033 | 787.7 | –
288.15 K, x2 = 0.9494 | – | 2.19
288.15 K, x2 = 0.9514 | 785.33 | –
298.15 K, x2 = 0 | 861.17 | 7.07
298.15 K, x2 = 0.0446 | 855.02 | –
298.15 K, x2 = 0.0475 | – | 6.7
298.15 K, x2 = 0.0978 | 848.89 | –
298.15 K, x2 = 0.098 | – | 6.31
298.15 K, x2 = 0.1963 | 837.39 | –
298.15 K, x2 = 0.2057 | – | 5.58
298.15 K, x2 = 0.3034 | – | 4.96
298.15 K, x2 = 0.3038 | 825.79 | –
298.15 K, x2 = 0.3952 | – | 4.43
298.15 K, x2 = 0.4024 | 815.96 | –
298.15 K, x2 = 0.5013 | 806.83 | –
298.15 K, x2 = 0.5077 | – | 3.84
298.15 K, x2 = 0.6014 | – | 3.41
298.15 K, x2 = 0.6054 | 798.09 | –
298.15 K, x2 = 0.7018 | 790.78 | –
298.15 K, x2 = 0.7093 | – | 2.96
298.15 K, x2 = 0.7994 | – | 2.63
298.15 K, x2 = 0.8023 | 784.01 | –
298.15 K, x2 = 0.8965 | 778.59 | –
298.15 K, x2 = 0.9016 | – | 2.3
298.15 K, x2 = 0.9498 | 776 | –
298.15 K, x2 = 0.952 | – | 2.16
308.15 K, x2 = 0 | 850.13 | 6.75
308.15 K, x2 = 0.0454 | 844.13 | –
308.15 K, x2 = 0.0456 | – | 6.42
308.15 K, x2 = 0.0969 | 838.11 | –
308.15 K, x2 = 0.0976 | – | 6.05
308.15 K, x2 = 0.1954 | 826.9 | –
308.15 K, x2 = 0.1983 | – | 5.41
308.15 K, x2 = 0.299 | – | 4.83
308.15 K, x2 = 0.2993 | 815.83 | –
308.15 K, x2 = 0.3959 | – | 4.29
308.15 K, x2 = 0.4037 | 805.56 | –
308.15 K, x2 = 0.4993 | – | 3.77
308.15 K, x2 = 0.5042 | 796.44 | –
308.15 K, x2 = 0.6002 | – | 3.32
308.15 K, x2 = 0.6072 | 787.93 | –
308.15 K, x2 = 0.6995 | 781.05 | –
308.15 K, x2 = 0.7005 | – | 2.93
308.15 K, x2 = 0.8004 | 774.34 | –
308.15 K, x2 = 0.8012 | – | 2.58
308.15 K, x2 = 0.902 | – | 2.27
308.15 K, x2 = 0.904 | 768.62 | –
308.15 K, x2 = 0.9514 | – | 2.14
308.15 K, x2 = 0.9535 | 766.31 | –
